These results are taken from paper PMC11074101 (Cell Discovery, 2024).

Type in all cases: cell-based
The target of one test is T1, MCHR1 WT (Homo sapiens, UniProt Q99705).
T1 construct: expressed in transfected cells; host or cells: HEK293
In words: GloSensor cAMP assay, MCHR1 WT (Gαi). To be noted: HEK293, GloSensor cAMP, normalized by WT receptor, mean ± S.E.M., n = 3 in triplicate. From the text: (§1) The gene sequences encoding human MCHR1 (residues 70‒405) and MCHR2 (residues 1‒331, with L256^6.40Y mutation) were subcloned into pFastBac vector (Invitrogen) with an N-terminal haemagglutinin signal peptide (HA) and a thermostabilized BRIL fusion, followed by a C-terminal 15-amino acid linker, a LgBiT subunit and two MBPs to facilitate receptor expression and stability. The Gαi construct was designed with dominant-negative mutations S47N, G203A, A326S, and E245A to decrease the affinity of nucleotide-binding and stable Gαβγ complex. The mini-Gαq construct was designed with the C-terminal α-helix (αH5) of Gαq, which is critical for G protein coupling selectivity. The core of the construct, known as the Ras domain, is derived from Gαs. This design choice was made to enable the binding of the nanobody Nb35, which stabilizes the complex for cryo-EM analysis. […] Rat Gβ1 was constructed with a N-terminal 16× His-tag for purification and a C-terminal HiBiT to form a NanoBiT with LgBiT. […] The wild-type and mutants of MCHR1 and MCHR2 were constructed into the pcDNA6.0 vector […] for functional assays.
(§2) GloSensor cAMP assay was used to detect the downstream Gαi signal of MCHR1 using GloSensor cAMP Reagent (Promega).
(Cyclic AMP is a second messenger, typically raised through Gs and lowered through Gi signalling.)

The next test concerns the target T2, MCHR1 I254(ECL2)A (Homo sapiens, UniProt Q99705, I185A).
T2 construct: expressed in transfected cells; host or cells: HEK293
In words: GloSensor cAMP assay, MCHR1 I254A. To be noted: HEK293, mean ± S.E.M., n = 3 in triplicate.
Excerpt: as §1, §2

The target of the next test is T3, MCHR1 F256(ECL2)A (Homo sapiens, UniProt Q99705, F187A).
T3 construct: expressed in transfected cells; host or cells: HEK293
In words: GloSensor cAMP assay, MCHR1 F256A. To be noted: HEK293, mean ± S.E.M., n = 3 in triplicate.
Excerpt: as §1, §2

The target of the next test is T4, MCHR1 P354(ECL3)A (Homo sapiens, UniProt Q99705, P285A).
T4 construct: expressed in transfected cells; host or cells: HEK293
Put plainly: GloSensor cAMP assay, MCHR1 P354A. To be noted: HEK293, mean ± S.E.M., n = 3 in triplicate.
Excerpt: as §1, §2

A further test addresses T5, MCHR1 Y370(7.42)A (Homo sapiens, UniProt Q99705, Y301A).
T5 construct: expressed in transfected cells; host or cells: HEK293
In words: GloSensor cAMP assay, MCHR1 Y370A. To be noted: HEK293, mean ± S.E.M., n = 3 in triplicate. From the text: (§3) The gene sequences encoding human MCHR1 (residues 70‒405) and MCHR2 (residues 1‒331, with L256^6.40Y mutation) were subcloned into pFastBac vector (Invitrogen) with an N-terminal haemagglutinin signal peptide (HA) and a thermostabilized BRIL fusion, followed by a C-terminal 15-amino acid linker, a LgBiT subunit and two MBPs to facilitate receptor expression and stability. The Gαi construct was designed with dominant-negative mutations S47N, G203A, A326S, and E245A to decrease the affinity of nucleotide-binding and stable Gαβγ complex. The mini-Gαq construct was designed with the C-terminal α-helix (αH5) of Gαq, which is critical for G protein coupling selectivity. The core of the construct, known as the Ras domain, is derived from Gαs. This design choice was made to enable the binding of the nanobody Nb35, which stabilizes the complex for cryo-EM analysis. […]
GloSensor cAMP assay was used to detect the downstream Gαi signal of MCHR1 using GloSensor cAMP Reagent (Promega). […] The sample mixtures were immediately measured with an EnVision multi-plate reader (PerkinElmer).
(§4) Concentration–response curves were evaluated with a three-parameter logistic equation. The significance was determined with one-way ANOVA with Tukey’s test, and P < 0.05 vs wild type was considered statistically significant.

A further test deals with T6, MCHR2 WT (Homo sapiens, UniProt Q969V1).
T6 construct: expressed in transfected cells; host or cells: AD293
In words: IP-One IP1 accumulation assay, MCHR2 WT (Gαq). To be noted: AD293, IP-One HTRF, mean ± S.E.M.
Excerpt: as §3
(§5) IP1 accumulation assay was applied for the detection of the downstream Gαq signal of MCHR2 using the IP-One HTRF kit (Cisbio). […] Before measurement, the samples were incubated at RT for 30 min and measured with EnVision multi-plate reader (PerkinElmer).
as §4
Background: In TR-FRET formats the signal depends on donor and acceptor labels being close together.

The target of a further test is T7, MCHR2 Q92(2.63)A (Homo sapiens, UniProt Q969V1, Q92A).
T7 construct: expressed in transfected cells; host or cells: AD293
Put plainly: IP-One IP1 accumulation assay, MCHR2 Q92A. To be noted: n = 3 in triplicate.
Excerpt: as §3, §5, §4

The target in a further test is T8, MCHR2 G96(ECL1)A (Homo sapiens, UniProt Q969V1, G96A).
T8 construct: expressed in transfected cells; host or cells: AD293
Put plainly: IP-One IP1 accumulation assay, MCHR2 G96A. To be noted: n = 3 in triplicate.
Excerpt: as §3, §5, §4

The target of a further test is T9, MCHR2 S295(7.42)A (Homo sapiens, UniProt Q969V1, S295A).
T9 construct: expressed in transfected cells; host or cells: AD293
Put plainly: IP-One IP1 accumulation assay, MCHR2 S295A. To be noted: n = 3 in triplicate.
Excerpt: as §3, §5, §4

Setting [1] is: AD293, IP-One HTRF, 37 °C 1 h, mean ± S.E.M., P < 0.0001 vs WT.

Molecules are shown by their SMILES.

T8 sequence (Q969V1 whole entry G96A): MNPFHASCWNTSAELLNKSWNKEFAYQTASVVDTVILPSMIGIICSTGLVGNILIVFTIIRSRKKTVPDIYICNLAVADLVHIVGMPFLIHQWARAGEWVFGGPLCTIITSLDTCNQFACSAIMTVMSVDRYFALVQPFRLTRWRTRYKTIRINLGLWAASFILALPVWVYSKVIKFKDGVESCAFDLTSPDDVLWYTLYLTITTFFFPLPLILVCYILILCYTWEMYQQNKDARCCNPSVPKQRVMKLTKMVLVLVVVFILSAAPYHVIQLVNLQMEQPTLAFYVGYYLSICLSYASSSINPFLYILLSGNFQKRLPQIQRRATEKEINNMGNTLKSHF
T7 sequence (Q969V1 whole entry Q92A): as the sequence (Q969V1 whole entry G96A) above, with Q92A, A96G counted along it
T9 sequence (Q969V1 whole entry S295A): as the sequence (Q969V1 whole entry G96A) above, with A96G, S295A counted along it
T6 sequence (Q969V1 whole entry): as the sequence (Q969V1 whole entry G96A) above, with A96G counted along it
T2 sequence (Q99705 whole entry I185A): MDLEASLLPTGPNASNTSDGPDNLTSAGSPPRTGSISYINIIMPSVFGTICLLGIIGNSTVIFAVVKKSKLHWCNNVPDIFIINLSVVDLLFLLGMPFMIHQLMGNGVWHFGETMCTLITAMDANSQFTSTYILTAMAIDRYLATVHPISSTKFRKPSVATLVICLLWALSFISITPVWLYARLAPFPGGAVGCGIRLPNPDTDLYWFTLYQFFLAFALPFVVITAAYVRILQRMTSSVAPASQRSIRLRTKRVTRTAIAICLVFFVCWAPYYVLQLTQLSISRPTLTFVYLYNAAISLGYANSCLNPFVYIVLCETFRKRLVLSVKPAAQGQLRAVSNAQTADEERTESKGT
T4 sequence (Q99705 whole entry P285A): as the sequence (Q99705 whole entry I185A) above, with A185I, P285A counted along it
T3 sequence (Q99705 whole entry F187A): as the sequence (Q99705 whole entry I185A) above, with A185I, F187A counted along it
T5 sequence (Q99705 whole entry Y301A): as the sequence (Q99705 whole entry I185A) above, with A185I, Y301A counted along it
T1 sequence (Q99705 whole entry): as the sequence (Q99705 whole entry I185A) above, with A185I counted along it

Broadly, the Emax is the greatest response seen or fitted, relative to the assay's reference. The EC50 is the concentration needed to bring the measured effect to its halfway point. For `CSCC[C@@H]1NC(=O)[C@@H](NC(=O)[C@H](CCCNC(=N)N)NC(=O)[C@H](CC(C)C)NC(=O)[C@H](CCSC)NC(=O)[C@H](CC(=O)O)NC(=O)[C@H](Cc2ccccc2)NC(=O)[C@@H](N)CC(=O)O)CSSC[C@@H](C(=O)N[C@@H](Cc2c[nH]c3ccccc23)C(=O)N[C@@H](CCC(N)=O)C(=O)N[C@H](C(=O)O)C(C)C)NC(=O)[C@@H]2CCCN2C(=O)[C@H](CCCNC(=N)N)NC(=O)[C@H](Cc2ccc(O)cc2)NC(=O)[C@H](C(C)C)NC(=O)[C@H](CCCNC(=N)N)NC(=O)CNC(=O)[C@H](CC(C)C)NC1=O` [MCH, Melanin-concentrating hormone], the Emax at MCHR1 WT is 100%; on MCHR1 I254(ECL2)A, 98 ± 3%; on MCHR1 F256(ECL2)A, 106 ± 2%; at MCHR1 P354(ECL3)A it was 109 ± 1%; on MCHR1 Y370(7.42)A it was -21 ± 4%; at MCHR2 WT (normalized by WT receptor, n = 3 in triplicate), 100%. The Emax on MCHR2 Q92(2.63)A (AD293, mean ± S.E.M.) amounted to 25 ± 2%; at MCHR2 G96(ECL1)A (AD293, mean ± S.E.M.), 96%; on MCHR2 S295(7.42)A (AD293, mean ± S.E.M.), 81 ± 2%. The EC50 on MCHR2 WT (37 °C 1 h, three independent experiments in triplicate) was 3.16 nM; on MCHR2 Q92(2.63)A (setting [1]), 9120 nM; at MCHR2 G96(ECL1)A (AD293, IP-One HTRF, 37 °C 1 h, mean ± S.E.M., P 0.0012 vs WT), 15.5 nM; at MCHR2 S295(7.42)A (setting [1]) it was 234 nM.
